Test results taken from US20090042964A1, “AMINO-5-[SUBSTITUTED-4-(DIFLUOROMETHOXY)PHENYL]-5-PHENYLIMIDAZOLONE COMPOUNDS AS BETA-SECRETASE INHIBITORS” (Wyeth, priority 2007, published 2009).
Like-named read-outs stand apart in the source and are kept apart here.

Target: human BACE1 (Homo sapiens, UniProt P56817)
Experiment: Fluorescent kinetic assay, evaluation of BACE1 binding affinity of test compounds
Type: biochemical
Conditions: 10 nM human BACE1, 25 μM substrate WABC-6, pH 4.5, room temperature
Protocol: Concentration is determined by absorbance at 354 nm using an extinction coefficient of 18172 M^-1 cm^-1, the concentration of stock substrate is corrected, and the substrate stock stored in small aliquots in -80° C. […] Determination of Stock Enzyme Concentration: the stock concentration of each enzyme is determined by absorbance at 280 nm using an of 64150 M^-1 cm^-1 for hBACE1 and MuBACE1, 62870 M^-1 cm^-1 for hBACE2 in 6 M Guanidinium Hydrochloride (from Research Organics, Cat. # 5134G-2), pH 6. […] Biochem. 182, 319-326). Dilution and mixing steps: total reaction volume: 100 μL 2× inhibitor dilutions in buffer A (66.7 mM Na-Acetate, pH 4.5, 0.0667% CHAPS) were prepared, 4× enzyme dilution in buffer A (66.7 mM Na-Acetate, pH 4.5, 0.0667% CHAPS) were prepared, 100 μM substrate dilution in 1×PBS was prepared, and 50 μL 2× Inhibitor, 25 μL 100 μM substrate are added to each well of 96-well plate (from DYNEX Technologies, VWR #: 11311-046), immediately followed by 25 μL 4× enzyme (added to the inhibitor and substrate mix), and the fluorescence readings are initiated.

Chain of human BACE1 (P56817 46-501): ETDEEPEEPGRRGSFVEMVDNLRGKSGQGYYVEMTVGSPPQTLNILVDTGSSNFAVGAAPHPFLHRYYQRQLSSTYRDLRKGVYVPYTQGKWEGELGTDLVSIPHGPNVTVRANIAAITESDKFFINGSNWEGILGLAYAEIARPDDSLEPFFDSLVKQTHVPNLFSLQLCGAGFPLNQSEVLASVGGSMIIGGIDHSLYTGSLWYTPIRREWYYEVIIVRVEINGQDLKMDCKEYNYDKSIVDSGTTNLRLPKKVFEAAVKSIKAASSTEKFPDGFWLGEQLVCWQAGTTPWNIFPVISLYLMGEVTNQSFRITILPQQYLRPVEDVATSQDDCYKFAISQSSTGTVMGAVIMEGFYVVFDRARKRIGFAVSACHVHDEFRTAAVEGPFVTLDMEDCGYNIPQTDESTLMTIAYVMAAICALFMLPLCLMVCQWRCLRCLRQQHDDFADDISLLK

Structure (SMILES)	IC50 (read-out: BACE1 IC50) [µM]	IC50 (BACE1 IC50 μM) [µM]
CCc1cc(C2(c3ccc(F)c(OCC(F)F)c3)N=C(N)N(C)C2=O)ccc1OC(F)F (centres unmarked) [Example 117, 2-Amino-5-[3-(2,2-difluoroethoxy)-4-fluorophenyl]-5-[4-(difluoromethoxy)-3-ethylphenyl]-3-methyl-3,5-dihydro-4H-imidazol-4-one]	< 0.1	
CCc1cc([C@@]2(c3cccc(C#CCF)c3)N=C(N)N(C)C2=O)ccc1OC(F)F [Example 160, (5R)-2-Amino-5-[4-(difluoromethoxy)-3-ethylphenyl]-5-[3-(3-fluoroprop-1-yn-1-yl)phenyl]-3-methyl-3,5-dihydro-4H-imidazol-4-one]	> 1	
Cc1cc(C2(c3ccc(OC(F)F)c(C)c3)N=C(N)N(C)C2=O)ccc1F (centres unmarked) [Example 20, 2-Amino-5-[4-(difluoromethoxy)-3-methylphenyl]-5-(4-fluoro-3-methylphenyl)-3-methyl-3,5-dihydro-4H-imidazol-4-one]		0.11 to 1
C=Cc1cc([C@]2(c3ccccc3)N=C(N)N(C)C2=O)ccc1OC(F)F [Example 34, (5S)-2-Amino-5-[4-(difluoromethoxy)-3-vinylphenyl]-3-methyl-5-phenyl-3,5-dihydro-4H-imidazol-4-one]		> 1
CC(C)c1cc(C2(c3ccccc3)N=C(N)N(C)C2=O)ccc1OC(F)F (stereo in doubt) [Example 138, (5R)-2-Amino-5-[4-(difluoromethoxy)-3-isopropylphenyl]-3-methyl-5-phenyl-3,5-dihydro-4H-imidazol-4-one]	< 0.1	
CCc1cc([C@@]2(c3ccc(F)c(OCC(F)F)c3)N=C(N)N(C)C2=O)ccc1OC(F)F [Example 118, (5S)-2-Amino-5-[3-(2,2-difluoroethoxy)-4-fluorophenyl]-5-[4-(difluoromethoxy)-3-ethylphenyl]-3-methyl-3,5-dihydro-4H-imidazol-4-one]	> 1	
Cc1cc([C@]2(c3ccc(F)c(OCCF)c3)N=C(N)N(C)C2=O)ccc1OC(F)F [Example 113, (5R)-2-Amino-5-[4-(difluoromethoxy)-3-methylphenyl]-5-[4-fluoro-3-(2-fluoroethoxy)phenyl]-3-methyl-3,5-dihydro-4H-imidazol-4-one]	< 0.1	
CN1C(=O)[C@@](c2cccc(C#CCCCF)c2)(c2ccc(OC(F)F)c(C3CC3)c2)N=C1N (single isomer, unassigned) [Example 193]	0.11 to 1	
COCC/C=C/c1cccc(C2(c3ccc(OC(F)F)c(C)c3)N=C(N)N(C)C2=O)c1 (centres unmarked) [Example 64, 2-Amino-5-[4-(difluoromethoxy)-3-methylphenyl]-5-[3-((E)-4-methoxybut-1-enyl)phenyl]-3-methyl-3,5-dihydro-4H-imidazol-4-one]	< 0.1	
CN1C(=O)C(c2ccc(OC(F)F)c(CCF)c2)(c2ccc(F)c(OCC(F)F)c2)N=C1N (centres unmarked) [Example 129, 2-Amino-5-[3-(2,2-difluoroethoxy)-4-fluorophenyl]-5-[4-(difluoromethoxy)-3-(2-fluoroethyl)phenyl]-3-methyl-3,5-dihydro-4H-imidazol-4-one]	< 0.1	
CN1C(=O)C(c2cccc(C#CCCCO)c2)(c2ccc(OC(F)F)c(C3CC3)c2)N=C1N (centres unmarked) [Example 188, 2-amino-4-(3-cyclopropyl-4-(difluoromethoxy)phenyl)-4-(3-(5-hydroxypent-1-ynyl)phenyl)-1-methyl-1H-imidazol-5(4H)-one]	< 0.1	
CN1C(=O)C(c2cccc(/C=C/CCF)c2)(c2ccc(OC(F)F)c(Cl)c2)N=C1N (centres unmarked) [Example 68, 2-Amino-5-[3-chloro-4-(difluoromethoxy)phenyl)-5-[3-((E)-4-fluoro-but-1-enyl)phenyl]-3-methyl-3,5-dihydro-4H-imidazol-4-one]	< 0.1	
CC(C)c1cc(C2(c3ccccc3)N=C(N)N(C)C2=O)ccc1OC(F)F (stereo in doubt) [Example 139, (5S)-2-Amino-5-[4-(difluoromethoxy)-3-isopropylphenyl]-3-methyl-5-phenyl-3,5-dihydro-4H-imidazol-4-one]	> 1	
CCc1cc([C@@]2(c3ccc(F)c(C#CCC(C)C)c3)N=C(N)N(C)C2=O)ccc1OC(F)F [Example 151, (5S)-2-Amino-5-[4-(difluoromethoxy)-3-ethylphenyl]-5-[4-fluoro-3-(4-methylpent-1-yn-1-yl)phenyl]-3-methyl-3,5-dihydro-4H-imidazol-4-one]	> 1	
CN1C(=O)C(c2cccc(C3CC3)c2)(c2ccc(OC(F)F)c(C3CC3)c2)N=C1N (centres unmarked) [Example 187, 2-amino-4-(3-cyclopropyl-4-(difluoromethoxy)phenyl)-4-(3-cyclopropylphenyl)-1-methyl-1H-imidazol-5(4H)-one]	0.11 to 1	

Second part, led by results:

IC50 (read-out: BACE1 IC50) [µM]	Structure (SMILES)	IC50 (BACE1 IC50 μM) [µM]
< 0.1	CCCOc1cc(C2(c3ccc(OC(F)F)c(C)c3)N=C(N)N(C)C2=O)ccc1F (stereo in doubt) [Example 116, (5S)-2-Amino-5-[4-(difluoromethoxy)-3-methylphenyl]-5-(4-fluoro-3-propoxyphenyl)-3-methyl-3,5-dihydro-4H-imidazol-4-one]	
< 0.1	CN1C(=O)[C@](c2cccc(Br)c2)(c2ccc(OC(F)F)c(C3CC3)c2)N=C1N (single isomer, unassigned) [Example 165]	
0.11 to 1	CN1C(=O)[C@@](c2cccc(C#CC3CC3)c2)(c2ccc(OC(F)F)c(C3CC3)c2)N=C1N (single isomer, unassigned) [Example 178]	
< 0.1	CCCC#Cc1cc(C2(c3ccc(OC(F)F)c(CCF)c3)N=C(N)N(C)C2=O)ccc1F (centres unmarked) [Example 88, 2-amino-5-[4-(difluoromethoxy)-3-(2-fluoroethyl)phenyl]-5-(4-fluoro-3-pent-1-yn-1-ylphenyl)-3-methyl-3,5-dihydro-4H-imidazol-4-one]	
< 0.1	CCC#Cc1cc(C2(c3ccc(OC(F)F)c(C)c3)N=C(N)N(C)C2=O)ccc1F (centres unmarked) [Example 82, 2-amino-5-(3-but-1-yn-1-yl-4-fluorophenyl)-5-[4-(difluoromethoxy)-3-methylphenyl]-3-methyl-3,5-dihydro-4H-imidazol-4-one]	
< 0.1	COCCc1cc(C2(c3ccccc3)N=C(N)N(C)C2=O)ccc1OC(F)F (centres unmarked) [Example 142, 2-Amino-5-[4-(difluoromethoxy)-3-(2-methoxyethyl)phenyl]-3-methyl-5-phenyl-3,5-dihydro-4H-imidazol-4-one]	
< 0.1	CCOc1cccc(C2(c3ccc(OC(F)F)c(C)c3)N=C(N)N(C)C2=O)c1 (centres unmarked) [Example 41, 2-Amino-5-[4-(difluoromethoxy)-3-methylphenyl]-5-(3-ethoxyphenyl)-3-methyl-3,5-dihydro-4H-imidazol-4-one]	
> 1	CN1C(=O)[C@@](c2cccc(Br)c2)(c2ccc(OC(F)F)c(C3CC3)c2)N=C1N (single isomer, unassigned) [Example 166]	
< 0.1	CCCc1cc([C@]2(c3ccccc3)N=C(N)N(C)C2=O)ccc1OC(F)F (single isomer, unassigned) [Example 79]	
< 0.1	CCC#Cc1cc(C2(c3ccc(OC(F)F)c(CCF)c3)N=C(N)N(C)C2=O)ccc1F (centres unmarked) [Example 89, 2-amino-5-(3-but-1-yn-1-yl-4-fluorophenyl)-5-[4-(difluoromethoxy)-3-(2-fluoroethyl)phenyl]-3-methyl-3,5-dihydro-4H-imidazol-4-one]	
< 0.1	CN1C(=O)[C@](c2ccc(F)c(OCCCF)c2)(c2ccc(OC(F)F)c(C3CC3)c2)N=C1N (single isomer, unassigned) [Example 86]	
< 0.1	Cc1cc(C2(c3ccc(F)c(C#CC(C)C)c3)N=C(N)N(C)C2=O)ccc1OC(F)F (centres unmarked) [Example 48, 2-Amino-5-[4-(difluoromethoxy)-3-methylphenyl]-5-[4-fluoro-3-(3-methylbut-1-yn-1-yl)phenyl]-3-methyl-3,5-dihydro-4H-imidazol-4-one]	
0.11 to 1	Cc1cc(C2(c3ccc(OC(F)F)c(C)c3)N=C(N)N(C)C2=O)ccc1OC(F)F [Example 71, 2-Amino-5,5-bis-[4-(difluoromethoxy)-3-methylphenyl]-3-methyl-3,5-dihydro-4H-imidazol-4-one]	
< 0.1	CN1C(=O)C(c2cccc(C#CCF)c2)(c2ccc(OC(F)F)c(C3CC3)c2)N=C1N (centres unmarked) [Example 209, 2-amino-5-[3-cyclopropyl-4-(difluoromethoxy)phenyl]-5-[3-(3-fluoroprop-1-yn-1-yl)phenyl]-3-methyl-3,5-dihydro-4H-imidazol-4-one]	
< 0.1	CN1C(=O)[C@](c2ccc(F)c(C#CCCF)c2)(c2ccc(OC(F)F)c(C3CC3)c2)N=C1N [Example 215, (5R)-2-amino-5-[3-cyclopropyl-4-(difluoromethoxy)phenyl]-5-[4-fluoro-3-(4-fluorobut-1-yn-1-yl)phenyl]-3-methyl-3,5-dihydro-4H-imidazol-4-one]	
< 0.1	Cc1cc(C2(c3cccc(OCC(F)F)c3)N=C(N)N(C)C2=O)ccc1OC(F)F (centres unmarked) [Example 43, 2-Amino-5-[3-(2,2-difluoroethoxy)phenyl]-5-[4-(difluoromethoxy)-3-methylphenyl]-3-methyl-3,5-dihydro-4H-imidazol-4-one]	
< 0.1	CCc1cc([C@]2(c3cccc(C#CCF)c3)N=C(N)N(C)C2=O)ccc1OC(F)F [Example 161, (5S)-2-Amino-5-[4-(difluoromethoxy)-3-ethylphenyl]-5-[3-(3-fluoroprop-1-yn-1-yl)phenyl]-3-methyl-3,5-dihydro-4H-imidazol-4-one]	
